Tests used:
[1] = target: PARP14 (Homo sapiens, UniProt Q460N5); experiment: Selectivity profile (other isoforms of PARP and NRP family); format: biochemical
[2] = target: CHK1 (Homo sapiens, UniProt O14757); experiment: Selectivity profile (123 kinase panel); format: biochemical
[3] = target: PARP8 (Homo sapiens, UniProt Q8N3A8); experiment: Selectivity profile (other isoforms of PARP and NRP family); format: biochemical
[4] = target: EPHA4 (Homo sapiens, UniProt P54764); experiment: Selectivity profile (123 kinase panel); format: biochemical
[5] = target: EPHB1 (Homo sapiens, UniProt P54762); experiment: Selectivity profile (123 kinase panel); format: biochemical
[6] = target: NIM1K (Homo sapiens, UniProt Q8IY84); experiment: Selectivity profile (123 kinase panel); format: biochemical
[7] = target: BRSK2 (Homo sapiens, UniProt Q8IWQ3); experiment: Selectivity profile (123 kinase panel); format: biochemical
[8] = target: T1, PARP1 (Homo sapiens, UniProt P09874); experiment: In vitro PARP1 inhibition assay (chemiluminescence); format: biochemical; settings: PARP1 enzyme 0.6 units/well
T1 construct: purchased Abcam
Experimental: In each well, 50 μL of 1 × PARP1 buffer was added and incubated for 30 min at room temperature. The 1 × PARP1 buffer was removed from the wells, and then 25 μL of 1 × PARP1 cocktail was added to each well along with varying doses of compounds and PARP1 enzyme (0.6 units/well). Incubated and washed twice with PBS and 0.1% Triton X-100. Then added 50 μL Strep-HRP and washed twice. Equal volumes (100 μL) of PeroxyGlow A and B were added to each well and immediately take chemiluminescent readings. Data were analyzed by GraphPad Prism 9 software based on chemiluminescence readings of chemiluminescent substrates of Strep-HRP in each well. The IC50 value was were calculated by nonlinear curve fitting in GraphPad Prism 9.

[9] = target: FLT1 (Homo sapiens, UniProt P17948); experiment: Selectivity profile (123 kinase panel); format: biochemical
[10] = target: CaMK2α (Homo sapiens, UniProt Q9UQM7); experiment: Selectivity profile (123 kinase panel); format: biochemical
[11] = target: DCAMKL1 (Homo sapiens, UniProt O15075); experiment: Selectivity profile (123 kinase panel); format: biochemical
[12] = target: MARK2 (Homo sapiens, UniProt Q7KZI7); experiment: Selectivity profile (123 kinase panel); format: biochemical
[13] = target: EPHA5 (Homo sapiens, UniProt P54756); experiment: Selectivity profile (123 kinase panel); format: biochemical
[14] = target: CSF1R (Homo sapiens, UniProt P07333); experiment: Selectivity profile (123 kinase panel); format: biochemical
[15] = target: HIPK1 (Homo sapiens, UniProt Q86Z02); experiment: Selectivity profile (123 kinase panel); format: biochemical
[16] = target: IGF1R (Homo sapiens, UniProt P08069); experiment: Selectivity profile (123 kinase panel); format: biochemical
[17] = target: KDR (Homo sapiens, UniProt P35968); experiment: Selectivity profile (123 kinase panel); format: biochemical
[18] = target: BRAF (Homo sapiens, UniProt P15056); experiment: Selectivity profile (123 kinase panel); format: biochemical
[19] = target: DAPK1 (Homo sapiens, UniProt P53355); experiment: Selectivity profile (123 kinase panel); format: biochemical
[20] = target: AurB (Homo sapiens, UniProt Q96GD4); experiment: Selectivity profile (123 kinase panel); format: biochemical
[21] = target: PARP10 (Homo sapiens, UniProt Q53GL7); experiment: Selectivity profile (other isoforms of PARP and NRP family); format: biochemical
[22] = target: AKT3 (Homo sapiens, UniProt Q9Y243); experiment: Selectivity profile (123 kinase panel); format: biochemical
[23] = target: HIPK3 (Homo sapiens, UniProt Q9H422); experiment: Selectivity profile (123 kinase panel); format: biochemical
[24] = target: LOK (Homo sapiens, UniProt O94804); experiment: Selectivity profile (123 kinase panel); format: biochemical
[25] = target: HIPK4 (Homo sapiens, UniProt Q8NE63); experiment: Selectivity profile (123 kinase panel); format: biochemical
[26] = target: DCAMKL2 (Homo sapiens, UniProt Q8N568); experiment: Selectivity profile (123 kinase panel); format: biochemical
[27] = target: ALK4 (Homo sapiens, UniProt P36896); experiment: Selectivity profile (123 kinase panel); format: biochemical
[28] = target: EPHB3 (Homo sapiens, UniProt P54753); experiment: Selectivity profile (123 kinase panel); format: biochemical
[29] = target: LYNa (Homo sapiens, UniProt P07948); experiment: Selectivity profile (123 kinase panel); format: biochemical
[30] = target: JAK1 (Homo sapiens, UniProt P23458); experiment: Selectivity profile (123 kinase panel); format: biochemical
[31] = target: T2, NRP1 (Homo sapiens, UniProt O14786); experiment: In vitro NRP1 inhibition assay (125I-VEGF-A binding displacement, NRP1-transfected HUVEC cells); settings: 125I-VEGF-A165 binding competition, 2 h, 4°C
T2 construct: expressed in transfected cells; host or cells: HUVEC, adenovirus NRP1
Experimental: The method was performed as described previously ([Jarvis et al., 2010]). Radiolabeled binding displacement experiments were performed as described previously ([Jia et al., 2006]). Confluent adenovirus NRP1-transfected HUVEC cells in 96-well plates were washed twice with PBS. At 4°C various concentrations of compounds diluted in binding medium (Dulbecco’s modified Eagle’s medium, 25 mM HEPES, pH 7.3, containing 0.1% BSA) were added, followed by addition of the indicated concentration of ^125I-VEGF-A (1,200–1800 Ci/mmol, GE Healthcare, United Kingdom). After 2 h of incubation at 4°C, the medium was aspirated, and washed four times with cold phosphate-buffered saline. The cells were lysed with 0.25 M NaOH, 0.5% SDS solution, and the bound radioactivity of the lysates was measured. IC50 values were calculated from the competition curves of the compounds in the ^125I-VEGF-A165 binding assay using GraphPad Prism 9 software. Using log(inhibitors) vs response-Variable slope equation in the GraphPad Prism 9 to fit the curves. The equation was as follows: (Top and Bottom are the responses, respectively, at the top and bottom of the curve, Y is the inhibitory response at a given compound concentration X, and the Hillslope describes the steepness of the curve.) Y=Bottom+Top−Bottom/1+10^logIC50−xHillslope

Sequence of PARP10 (Q53GL7 whole entry, canonical isoform): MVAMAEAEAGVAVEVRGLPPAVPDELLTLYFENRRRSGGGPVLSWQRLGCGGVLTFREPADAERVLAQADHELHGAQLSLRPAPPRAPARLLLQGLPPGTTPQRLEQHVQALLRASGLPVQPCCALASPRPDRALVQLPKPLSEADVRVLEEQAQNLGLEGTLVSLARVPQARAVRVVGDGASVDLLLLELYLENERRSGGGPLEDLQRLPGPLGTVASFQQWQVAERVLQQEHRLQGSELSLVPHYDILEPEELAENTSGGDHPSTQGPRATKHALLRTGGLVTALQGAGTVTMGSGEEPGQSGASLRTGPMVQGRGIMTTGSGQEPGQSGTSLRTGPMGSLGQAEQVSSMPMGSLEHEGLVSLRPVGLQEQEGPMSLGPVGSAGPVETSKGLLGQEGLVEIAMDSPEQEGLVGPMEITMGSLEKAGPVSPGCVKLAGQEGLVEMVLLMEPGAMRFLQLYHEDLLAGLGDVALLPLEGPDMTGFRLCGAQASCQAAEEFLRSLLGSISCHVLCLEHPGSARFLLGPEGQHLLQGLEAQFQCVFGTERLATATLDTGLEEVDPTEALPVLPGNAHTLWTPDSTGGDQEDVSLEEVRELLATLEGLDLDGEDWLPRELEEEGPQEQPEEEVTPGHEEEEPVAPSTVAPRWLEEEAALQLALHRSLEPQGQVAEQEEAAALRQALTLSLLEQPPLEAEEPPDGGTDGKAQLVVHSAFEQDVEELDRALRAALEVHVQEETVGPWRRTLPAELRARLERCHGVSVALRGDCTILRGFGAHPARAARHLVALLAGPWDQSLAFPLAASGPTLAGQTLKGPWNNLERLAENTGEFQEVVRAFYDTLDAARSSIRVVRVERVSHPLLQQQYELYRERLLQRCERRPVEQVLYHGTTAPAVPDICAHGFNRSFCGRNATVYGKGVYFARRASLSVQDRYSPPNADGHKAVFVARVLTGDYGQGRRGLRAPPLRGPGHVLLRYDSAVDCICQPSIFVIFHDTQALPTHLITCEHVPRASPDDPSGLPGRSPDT
Sequence of DAPK1 (P53355 whole entry): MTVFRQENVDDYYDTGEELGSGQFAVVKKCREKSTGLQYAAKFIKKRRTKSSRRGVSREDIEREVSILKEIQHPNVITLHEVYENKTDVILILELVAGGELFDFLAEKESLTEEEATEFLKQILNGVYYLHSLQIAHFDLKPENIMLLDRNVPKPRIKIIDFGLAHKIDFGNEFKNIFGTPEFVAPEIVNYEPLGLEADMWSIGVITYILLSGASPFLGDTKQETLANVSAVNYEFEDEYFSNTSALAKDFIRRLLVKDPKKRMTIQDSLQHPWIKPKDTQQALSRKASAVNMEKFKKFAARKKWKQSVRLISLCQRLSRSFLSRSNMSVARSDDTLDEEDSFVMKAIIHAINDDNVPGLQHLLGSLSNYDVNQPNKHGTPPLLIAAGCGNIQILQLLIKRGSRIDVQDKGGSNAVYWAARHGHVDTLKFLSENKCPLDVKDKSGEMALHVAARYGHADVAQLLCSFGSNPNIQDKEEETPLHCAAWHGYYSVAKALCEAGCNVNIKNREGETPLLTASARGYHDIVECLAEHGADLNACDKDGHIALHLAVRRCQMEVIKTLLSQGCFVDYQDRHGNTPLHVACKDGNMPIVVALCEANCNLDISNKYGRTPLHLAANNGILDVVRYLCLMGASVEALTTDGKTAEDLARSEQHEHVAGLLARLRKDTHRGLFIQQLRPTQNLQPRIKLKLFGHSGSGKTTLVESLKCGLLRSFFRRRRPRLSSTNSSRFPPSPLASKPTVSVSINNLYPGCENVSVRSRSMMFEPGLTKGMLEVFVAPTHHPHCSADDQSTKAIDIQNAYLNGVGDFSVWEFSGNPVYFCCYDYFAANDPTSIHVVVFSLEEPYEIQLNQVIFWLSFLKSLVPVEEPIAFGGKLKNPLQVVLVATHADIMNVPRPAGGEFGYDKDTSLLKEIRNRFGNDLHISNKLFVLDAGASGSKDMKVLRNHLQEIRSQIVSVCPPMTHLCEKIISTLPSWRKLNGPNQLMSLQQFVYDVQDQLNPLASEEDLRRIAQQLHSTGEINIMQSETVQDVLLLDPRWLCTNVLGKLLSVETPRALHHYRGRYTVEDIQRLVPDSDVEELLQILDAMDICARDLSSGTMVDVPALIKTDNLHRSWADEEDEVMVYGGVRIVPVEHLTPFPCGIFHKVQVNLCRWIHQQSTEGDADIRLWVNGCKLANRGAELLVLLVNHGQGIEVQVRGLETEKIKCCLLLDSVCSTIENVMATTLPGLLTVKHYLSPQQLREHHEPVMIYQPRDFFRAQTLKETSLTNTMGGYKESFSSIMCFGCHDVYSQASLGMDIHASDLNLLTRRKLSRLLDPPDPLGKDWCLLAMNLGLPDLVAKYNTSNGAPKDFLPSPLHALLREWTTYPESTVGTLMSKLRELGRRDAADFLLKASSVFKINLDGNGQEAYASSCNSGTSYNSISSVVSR
Sequence of PARP14 (Q460N5 whole entry, canonical isoform): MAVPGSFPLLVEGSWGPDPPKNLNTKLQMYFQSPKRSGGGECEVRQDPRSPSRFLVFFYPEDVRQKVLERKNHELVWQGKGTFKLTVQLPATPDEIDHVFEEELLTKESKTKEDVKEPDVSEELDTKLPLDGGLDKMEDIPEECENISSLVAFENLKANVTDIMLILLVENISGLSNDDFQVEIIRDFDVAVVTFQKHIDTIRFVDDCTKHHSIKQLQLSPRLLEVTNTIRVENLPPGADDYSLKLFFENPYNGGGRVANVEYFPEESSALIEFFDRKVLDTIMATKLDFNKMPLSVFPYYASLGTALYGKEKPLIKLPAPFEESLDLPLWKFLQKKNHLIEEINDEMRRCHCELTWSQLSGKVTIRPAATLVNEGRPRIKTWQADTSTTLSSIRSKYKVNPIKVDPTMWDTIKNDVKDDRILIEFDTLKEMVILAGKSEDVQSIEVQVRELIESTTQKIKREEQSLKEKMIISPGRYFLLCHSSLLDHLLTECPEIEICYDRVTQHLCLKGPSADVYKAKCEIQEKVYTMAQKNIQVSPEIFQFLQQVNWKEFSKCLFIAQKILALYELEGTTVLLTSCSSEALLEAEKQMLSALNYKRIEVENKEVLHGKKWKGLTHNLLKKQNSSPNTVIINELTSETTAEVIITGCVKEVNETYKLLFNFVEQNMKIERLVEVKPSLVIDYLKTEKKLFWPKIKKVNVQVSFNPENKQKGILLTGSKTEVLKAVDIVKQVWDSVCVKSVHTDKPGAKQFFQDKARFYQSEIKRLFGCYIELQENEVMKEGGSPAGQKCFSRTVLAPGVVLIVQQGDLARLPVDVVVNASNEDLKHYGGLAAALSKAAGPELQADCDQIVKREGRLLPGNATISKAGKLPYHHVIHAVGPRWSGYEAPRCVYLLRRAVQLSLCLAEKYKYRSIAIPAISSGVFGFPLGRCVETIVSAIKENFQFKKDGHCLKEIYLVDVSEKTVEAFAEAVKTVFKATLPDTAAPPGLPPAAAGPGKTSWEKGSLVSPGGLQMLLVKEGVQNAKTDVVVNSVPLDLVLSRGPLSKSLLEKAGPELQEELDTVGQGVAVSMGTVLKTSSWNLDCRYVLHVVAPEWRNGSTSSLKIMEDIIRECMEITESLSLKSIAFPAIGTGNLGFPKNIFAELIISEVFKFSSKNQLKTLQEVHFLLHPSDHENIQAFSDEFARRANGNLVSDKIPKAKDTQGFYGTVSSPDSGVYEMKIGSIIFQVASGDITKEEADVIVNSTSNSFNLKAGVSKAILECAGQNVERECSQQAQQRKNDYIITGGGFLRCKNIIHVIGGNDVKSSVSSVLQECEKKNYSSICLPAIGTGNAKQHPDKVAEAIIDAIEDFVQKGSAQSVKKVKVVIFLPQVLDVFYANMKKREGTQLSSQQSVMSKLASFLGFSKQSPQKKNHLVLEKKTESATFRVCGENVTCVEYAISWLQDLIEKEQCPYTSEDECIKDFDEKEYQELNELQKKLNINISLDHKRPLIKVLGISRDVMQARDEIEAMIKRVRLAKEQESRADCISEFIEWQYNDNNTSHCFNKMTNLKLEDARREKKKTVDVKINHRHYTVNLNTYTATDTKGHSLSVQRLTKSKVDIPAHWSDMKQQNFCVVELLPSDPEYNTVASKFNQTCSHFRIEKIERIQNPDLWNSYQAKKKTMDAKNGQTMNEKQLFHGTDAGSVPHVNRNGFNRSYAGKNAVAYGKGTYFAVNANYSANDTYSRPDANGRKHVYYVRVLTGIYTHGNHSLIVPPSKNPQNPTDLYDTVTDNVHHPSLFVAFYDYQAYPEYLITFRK
Sequence of BRSK2 (Q8IWQ3 whole entry): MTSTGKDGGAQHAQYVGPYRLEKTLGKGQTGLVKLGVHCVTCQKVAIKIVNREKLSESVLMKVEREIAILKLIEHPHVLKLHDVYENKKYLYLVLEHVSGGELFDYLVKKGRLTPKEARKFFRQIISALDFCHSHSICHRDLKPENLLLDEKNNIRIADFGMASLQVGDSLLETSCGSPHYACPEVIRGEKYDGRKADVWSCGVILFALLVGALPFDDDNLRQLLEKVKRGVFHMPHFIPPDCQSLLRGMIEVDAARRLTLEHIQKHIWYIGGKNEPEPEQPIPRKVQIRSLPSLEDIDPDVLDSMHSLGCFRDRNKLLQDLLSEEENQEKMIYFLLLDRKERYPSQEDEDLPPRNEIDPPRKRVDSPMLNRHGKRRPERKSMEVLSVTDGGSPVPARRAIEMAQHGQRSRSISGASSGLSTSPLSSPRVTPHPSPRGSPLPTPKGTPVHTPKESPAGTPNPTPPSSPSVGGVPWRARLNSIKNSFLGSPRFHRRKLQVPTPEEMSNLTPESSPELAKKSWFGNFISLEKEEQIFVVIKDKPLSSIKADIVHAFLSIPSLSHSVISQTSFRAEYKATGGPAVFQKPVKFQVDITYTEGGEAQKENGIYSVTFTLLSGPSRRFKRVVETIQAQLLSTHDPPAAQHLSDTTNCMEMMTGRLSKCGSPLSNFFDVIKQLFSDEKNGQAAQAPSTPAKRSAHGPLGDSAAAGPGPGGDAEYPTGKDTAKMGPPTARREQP

- IC50 [1]: > 10 µM
- IC50 [2]: > 10 µM
- IC50 [3]: > 10 µM
- IC50 [4]: > 10 µM
- IC50 [5]: > 10 µM
- IC50 [6]: > 10 µM
- IC50 [7]: > 10 µM
- IC50 [8]: 0.00771 ± 0.00039 µM
- IC50 [9]: > 10 µM
- IC50 [10]: > 10 µM
- IC50 [11]: > 10 µM
- IC50 [12]: > 10 µM
- IC50 [13]: > 10 µM
- IC50 [14]: > 10 µM
- IC50 [15]: > 10 µM
- IC50 [16]: > 10 µM
- IC50 [17]: > 10 µM
- IC50 [18]: > 10 µM
- IC50 [19]: > 10 µM
- IC50 [20]: > 10 µM
- IC50 [21]: > 10 µM
- IC50 [22]: > 10 µM
- IC50 [23]: > 10 µM
- IC50 [24]: > 10 µM
- IC50 [25]: > 10 µM
- IC50 [26]: > 10 µM
- IC50 [27]: > 10 µM
- IC50 [28]: > 10 µM
- IC50 [29]: > 10 µM
- IC50 [30]: > 10 µM
- IC50 [31]: 0.0245 ± 0.00216 µM
Structure (SMILES): NC(N)=NCCC[C@H](NCN1CCN(C(=O)c2cc(Cc3n[nH]c(=O)c4ccccc34)ccc2F)CC1)C(=O)O [PPNR-4]

— paper PMC11637875, “Discovery of novel PARP1/NRP1 dual-targeting inhibitors with strong antitumor potency” (Frontiers in Pharmacology, 2024)
